In US9790229B2, “Bruton's tyrosine kinase inhibitors” (priority 2009, dated 2017):
Where two headings read alike, the source gives them in different places.

Target: BTK (Homo sapiens (Human), UniProt Q06187)
Test: In vitro BTK kinase assay: BTK-POLYGAT-LS ASSAY
[1] = read-out: IC50 (10 uM ATP), 10 uM ATP, in vitro Btk kinase assay, Example 41

Sequence of BTK (Q06187 whole entry): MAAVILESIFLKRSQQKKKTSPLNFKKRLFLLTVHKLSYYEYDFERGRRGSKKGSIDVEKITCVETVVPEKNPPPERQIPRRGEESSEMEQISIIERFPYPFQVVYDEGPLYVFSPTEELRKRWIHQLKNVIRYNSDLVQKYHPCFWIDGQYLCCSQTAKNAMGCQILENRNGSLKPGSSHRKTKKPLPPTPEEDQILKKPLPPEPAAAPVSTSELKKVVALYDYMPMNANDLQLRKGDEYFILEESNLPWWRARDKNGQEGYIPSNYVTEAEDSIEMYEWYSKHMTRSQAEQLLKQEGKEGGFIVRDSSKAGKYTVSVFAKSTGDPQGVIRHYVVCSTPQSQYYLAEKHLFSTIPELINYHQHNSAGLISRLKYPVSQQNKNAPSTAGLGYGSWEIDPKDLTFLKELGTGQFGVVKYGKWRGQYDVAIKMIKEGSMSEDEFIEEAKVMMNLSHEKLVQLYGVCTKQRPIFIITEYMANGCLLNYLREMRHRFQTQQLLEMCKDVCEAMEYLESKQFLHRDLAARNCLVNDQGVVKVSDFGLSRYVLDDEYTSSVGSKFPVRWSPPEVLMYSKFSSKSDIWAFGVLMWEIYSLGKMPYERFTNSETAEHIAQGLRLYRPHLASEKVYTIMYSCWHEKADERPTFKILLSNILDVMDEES

SMILES	IC50 [1] [nM]	IC50 [nM]
Nc1ncnc(N2CC[C@@H](F)[C@H](N3CCC[C@@H](Nc4cc(F)cc(Cl)c4)C3=O)C2)c1F [compound 342, (3R,3′R,4′R)-1′-(6-amino-5-fluoropyrimidin-4-yl)-3-(3-chloro-5-fluorophenylamino)-4′-fluoro-1,3′-bipiperidin-2-one]	> 10000	–
Nc1ncnc(N2CC[C@H](F)[C@H](N3CCC[C@H](Nc4cc(F)cc(Cl)c4)C3=O)C2)c1F [compound 343, (3S,3′R,4′S)-1′-(6-amino-5-fluoropyrimidin-4-yl)-3-(3-chloro-5-fluorophenylamino)-4′-fluoro-1,3′-bipiperidin-2-one]	> 10000	–
Nc1ncnc(N2CCOCC(N3CCCC(Nc4cc(Cl)cc(Cl)c4)C3=O)C2)c1F (stereo not shown) [compound 344]	< 100	–
Nc1ncnc(N2CCOCC(N3CCCC(Nc4cc(F)cc(Cl)c4)C3=O)C2)c1F (stereo not shown) [compound 345, 1-(4-(6-Amino-5-fluoropyrimidin-4-yl)-1,4-oxazepan-6-yl)-3-(3-chloro-5-fluorophenylamino)piperidin-2-one]	< 100	–
Nc1ncnc(N2CCC[C@@H](N3CCCC[C@@H](Nc4cc(F)cc(Cl)c4)C3=O)C2)c1F [compound 346, (R)-1-((R)-1-(6-amino-5-fluoropyrimidin-4-yl)piperidin-3-yl)-3-(3-chloro-5-fluorophenylamino)azepan-2-one]	< 100	–
Nc1ncnc(N2CCC[C@@H](N3CC=CC[C@@H](Nc4cc(F)cc(Cl)c4)C3=O)C2)c1F [compound 347, (R,Z)-1-((R)-1-(6-amino-5-fluoropyrimidin-4-yl)piperidin-3-yl)-3-(3-chloro-5-fluorophenylamino)-3,4-dihydro-1H-azepin-2(7H)-one]	< 100	–
Nc1ncnc(N2CCC[C@@H](N3CC(O)C(O)C[C@@H](Nc4cc(F)cc(Cl)c4)C3=O)C2)c1F (stereo partly drawn) [compound 348, (3R)-1-((R)-1-(6-amino-5-fluoropyrimidin-4-yl)piperidin-3-yl)-3-(3-chloro-5-fluorophenylamino)-5,6-dihydroxyazepan-2-one]	< 100	–
Nc1ncnc(N2CCC(C(F)(F)F)C(N3CC=CC[C@@H](Nc4cc(F)cc(Cl)c4)C3=O)C2)c1F (stereo partly drawn) [compound 349, trans (R,Z)-1-(-1-(6-amino-5-fluoropyrimidin-4-yl)-4-(trifluoromethyl)piperidin-3-yl)-3-(3-chloro-5-fluorophenylamino)-3,4-dihydro-1H-azepin-2(7H)-one]	< 100	–
Nc1ncnc(N2CC[C@@H](C(F)(F)F)[C@H](N3CC=CC[C@@H](Nc4cc(F)cc(Cl)c4)C3=O)C2)c1F [compound 350]	< 100	–
O=C1C(Nc2cc(F)cc(Cl)c2)CCCN1[C@H]1CN(c2ncnc3[nH]ccc23)CC[C@@H]1C(F)(F)F (stereo partly shown) [compound 352]	< 100	–
Nc1ncnc(N2CC[C@H](C(F)(F)F)[C@@H](N3CC[C@@H](Nc4cc(Cl)cc(Cl)c4)C3=O)C2)c1F [compound 353]	< 100	–
Nc1ncnc(N2CCC[C@@H](N3CC[C@@H](Nc4cc(Cl)cc(Cl)c4)C3=O)C2)c1Cl [compound 354]	–	100 to 999
O=C1[C@@H](Nc2cc(Cl)cc(Cl)c2)CCN1[C@@H]1CCCN(c2ncnc3[nH]ccc23)C1 [compound 357]	< 100	–
N#CNc1cc(N2CCC[C@@H](N3CCCC(Nc4cc(F)cc(Cl)c4)C3=O)C2)ncn1 (stereo partly shown) [compound 358]	–	100 to 999
Nc1ncnc(N2CC(N3CCCC(Nc4cc(F)cc(Cl)c4)C3=O)CC(F)(F)C2)c1F (stereo not shown) [compound 359]	< 100	–
Nc1cc(N2CCC[C@@H](N3CCCC(Nc4cc(F)cc(Cl)c4)C3=O)C2)ncn1 (stereo partly shown) [compound 361]	< 100	–
